The assay addresses RBM39 and the DCAF15 complex (RBM39-Flag / His-DCAF15-DDA1-DDB1) (Homo sapiens (Human), UniProt Q14498+Q66K64). Nature of the assay: DCAF15 RBM39 complex formation TR-FRET assay. In kind it is binding. The conditions noted are these: RBM39(R150-D331) 3xFlag 50 nM, His-DCAF15-DDA1-DDB1 10 nM, 60 min room temperature. Here is the method: A TR-FRET assay was used to assess the effect of compounds disclosed herein on the interaction between RBM39 and the DCAF15 complex. Test compounds were dissolved to form a 10 mM DMSO stock solution. A 45 μL aliquot of the stock solution was transferred to a 384 pp-plate, and a threefold, 8-point dilution was performed via transferring 15 μL compound solution into 30 μL of DMSO. The plates were then spun at room temperature at 1,000 RPM for 1 minute.
A 30 nL aliquot of the diluted compound was transferred to a 384 well plate, which was incubated at room temperature for 15 minutes. Next, Solutions 1, 2, and 3 were prepared as described in the below tables. A 5 μL aliquot of Solution 2 was added to each well, followed by 5 μL of Solution 3 to start the reaction. The final volume of each well was 10 μL. The plates were incubated at room temperature for 60 minutes, and then read.
Next, an RBM39 (R150-D331) 3× Flag used in TR-FRET assay was prepared:
Recombinant RBM39 protein is composed of the R1R2 of RBM39 (aa 150 to 331; UniProt: Q14498). The coding sequence was sub-cloned into pGEX4T-1-RBM39-flag vector, expressed as a GST-fusion protein with N-terminal TEV protease cleavage site. A 3× Flag tag was added to the C-terminal of R1R2 used in a FRET assay.
On the technique in general: TR-FRET usually uses a lanthanide donor and a delayed reading to cut background.
Usually EC50 stands for the concentration needed to bring the measured effect to its halfway point. A low value points to an effect from little substance. Turning to `N#Cc1c[nH]c2c(NS(=O)(=O)c3onc(C4CC4)c3Cl)cccc12` [Compound 89], a half-maximal response (EC50) required 174 nM.
On to `Cc1ccc(NS(=O)(=O)c2nc(C(=O)N(C)C)cs2)c2[nH]cc(C#N)c12` [Compound 59], for which the EC50 turned out to be 802 nM.
The compound `N#Cc1c[nH]c2c(NS(=O)(=O)c3csc(C(F)F)n3)cccc12` [Compound 105] displayed an EC50 of 299 nM.
Compound `N#Cc1c[nH]c2c(NS(=O)(=O)c3cc(C4CC4)no3)cccc12` [Compound 87] showed an EC50 of 277 nM.
As for `O=S(=O)(Nc1cccc2c(C(F)(F)F)c[nH]c12)c1nccs1` [Compound 185], a half-maximal effect (EC50) was put at 1010 nM.
The value for `COCCNC(=O)c1csc(S(=O)(=O)Nc2ccc(C)c3c(C#N)c[nH]c23)n1` [Compound 75] was 2180 nM; that for `CC(C)(C)c1ncc(S(=O)(=O)Nc2cccc3c(C#N)c[nH]c23)o1` [Compound 110] was 729 nM.
The value for `CCc1nc(S(=O)(=O)Nc2cccc3c(C#N)c[nH]c23)c[nH]1` [Compound 38] was 4190 nM.
`Cc1ccc(NS(=O)(=O)c2ncc(-c3cn[nH]c3)s2)c2[nH]cc(C#N)c12` [Compound 70] yielded a concentration for a half-maximal effect (EC50) of 338 nM.
In turn, `Cc1ccc(NS(=O)(=O)c2cnc(C3CC3)o2)c2[nH]cc(C#N)c12` [Compound 97] displayed a half-maximal effective concentration (EC50) of 105 nM.
In the case of `Cc1ccc(NS(=O)(=O)c2onc(C3CC3)c2Cl)c2[nH]cc(C#N)c12` [Compound 83] it was 105 nM.
In the case of `Cc1ccc(NS(=O)(=O)c2ncc(-c3ccnnc3)s2)c2[nH]cc(C#N)c12` [Compound 68], the half-maximal effective concentration (EC50) was 708 nM.
Turning to `Cc1ccc(NS(=O)(=O)c2nc(CCO)cs2)c2[nH]cc(C#N)c12` [Compound 41], it took 363 nM to reach a half-maximal effect (EC50).
For `O=S(=O)(Nc1cccc2c(Cl)c[nH]c12)c1cnc(C(F)F)s1` [Compound 204], the concentration for a half-maximal effect (EC50) is 130 nM.
In the case of `Cc1ccc(NS(=O)(=O)c2nc(C(=O)O)cs2)c2[nH]cc(C#N)c12` [Compound 57] it was > 30000 nM.
As to `Cc1ccc(NS(=O)(=O)c2ncc(C(=O)N3CCOCC3)s2)c2[nH]cc(C#N)c12` [Compound 112], the concentration giving a half-maximal response (EC50) is 1360 nM.
For `Cc1ccc(NS(=O)(=O)c2ncc(C(N)=O)s2)c2[nH]cc(C#N)c12` [Compound 141], the half-maximal effective concentration (EC50) came to 919 nM.
`CCc1nc(S(=O)(=O)Nc2ccc(C)c3c(C#N)c[nH]c23)cn1CC(=O)NC1CC1` [Compound 139] displayed a concentration giving a half-maximal response (EC50) of 6070 nM.
Take `N#Cc1c[nH]c2c(NS(=O)(=O)c3ncc(Cl)s3)cccc12` [Compound 116]: the EC50 was 2130 nM.
On to `Cc1ncc(S(=O)(=O)Nc2cccc3c(C#N)c[nH]c23)s1` [Compound 51], for which it took 164 nM to reach a half-maximal effect (EC50).
`N#Cc1c[nH]c2c(NS(=O)(=O)c3nccs3)ccc(F)c12` [Compound 114] yielded a concentration for a half-maximal effect (EC50) of 3260 nM.
In turn, `Cc1ccc(NS(=O)(=O)c2cc(C3CC3)no2)c2[nH]cc(C#N)c12` [Compound 81] showed a half-maximal effective concentration (EC50) of 55.6 nM.
In turn, `O=S(=O)(Nc1ccc(F)c2c(Cl)c[nH]c12)c1cncs1` [Compound 187] yielded an EC50 of 228 nM.
`CCc1nc(S(=O)(=O)Nc2ccc(F)c3c(C#N)c[nH]c23)c[nH]1` [Compound 147] yielded an EC50 of 2030 nM.
Consider `N#Cc1c[nH]c2c(NS(=O)(=O)c3cnc(Cl)s3)cccc12` [Compound 136], for which the response was half-maximal at 511 nM (EC50).
For the compound `CC(C)(O)c1ncc(S(=O)(=O)Nc2cccc3c(C#N)c[nH]c23)s1` [Compound 202], the half-maximal effective concentration (EC50) was found to be 241 nM.
In the case of `O=S(=O)(Nc1ccc(F)c2c(Cl)c[nH]c12)c1nc(C(F)(F)F)cs1` [Compound 159, N-(3-chloro-4-fluoro-1H-indol-7-yl)-4-(trifluoromethyl)-1,3-thiazole-2-sulfonamide] it was 450 nM; in that of `N#Cc1c[nH]c2c(NS(=O)(=O)c3cnc(C4CC4)o3)cccc12` [Compound 107, N-(3-cyano-1H-indol-7-yl)-2-cyclopropyl-1,3-oxazole-5-sulfonamide], 325 nM; in that of `CCc1nc(S(=O)(=O)Nc2ccc(F)c3c(Cl)c[nH]c23)c[nH]1` [Compound 146], 505 nM.
`Cc1sc(S(=O)(=O)Nc2ccc(C)c3c(C#N)c[nH]c23)nc1C#N` [Compound 10] had a 50% effective concentration (EC50) of 75.7 nM.
As for `CCc1ncc(S(=O)(=O)Nc2ccc(C)c3c(C#N)c[nH]c23)o1` [Compound 118], the response was half-maximal at 168 nM (EC50).
In turn, `Cc1ccc(NS(=O)(=O)c2csc(C(F)F)n2)c2[nH]cc(C#N)c12` [Compound 95] came in with an EC50 of 104 nM.
Take `Cc1noc(C)c1S(=O)(=O)Nc1ccc(C)c2c(C#N)c[nH]c12` [Compound 43]: the concentration giving a half-maximal response (EC50) is > 30000 nM.
The value for `Cc1ccc(NS(=O)(=O)c2cscn2)c2[nH]cc(C#N)c12` [Compound 63] was 1170 nM; that for `Cc1nc(S(=O)(=O)Nc2cccc3c(C#N)c[nH]c23)sc1C` [Compound 160] was 674 nM.
The value for `Cc1ccc(NS(=O)(=O)c2ncc(-c3cccnc3)s2)c2[nH]cc(C#N)c12` [Compound 32] was 136 nM.
Turning to `Cc1ncc(S(=O)(=O)Nc2cccc3c(C#N)c[nH]c23)o1` [Compound 108], the EC50 came to 1970 nM.
Turning to `CCN(CC)C(=O)c1csc(S(=O)(=O)Nc2ccc(C)c3c(C#N)c[nH]c23)n1` [Compound 128], the EC50 turned out to be 650 nM.
As to `Cc1ccc(NS(=O)(=O)c2cc(C(C)(C)C)no2)c2[nH]cc(C#N)c12` [Compound 94], the concentration giving a half-maximal response (EC50) amounted to 45.2 nM.
Consider `N#Cc1c[nH]c2c(NS(=O)(=O)c3nc(C(F)(F)F)cs3)cc(F)cc12` [Compound 150], for which the midpoint of the response, the EC50, lay at 1250 nM.
Take `Cc1ccc(NS(=O)(=O)c2nc(C(N)=O)cs2)c2[nH]cc(C#N)c12` [Compound 72]: it took 432 nM to reach a half-maximal effect (EC50).
In the case of `Cc1ccc(NS(=O)(=O)c2ncc(C(=O)N3CCCC3)s2)c2[nH]cc(C#N)c12` [Compound 130] it was 1130 nM; in that of `N#Cc1c[nH]c2c(NS(=O)(=O)c3cnc(C(F)F)s3)cccc12` [Compound 120], 359 nM.
In the case of `Cc1ncc(S(=O)(=O)Nc2cccc3c(Cl)c[nH]c23)s1` [Compound 200], it took 207 nM to reach a half-maximal effect (EC50).
Consider `N#Cc1c[nH]c2c(NS(=O)(=O)c3cscn3)cccc12` [Compound 64], for which the midpoint of the response, the EC50, lay at 3440 nM.
In turn, `CCc1ncc(S(=O)(=O)Nc2ccc(C)c3c(C#N)c[nH]c23)s1` [Compound 85] came in with an EC50 of 95.9 nM.
Compound `Cc1ccc(NS(=O)(=O)c2ncc(Cl)s2)c2[nH]cc(C#N)c12` [Compound 3] registered an EC50 of 429 nM.
Consider `Cc1ccc(NS(=O)(=O)c2nc(C(=O)N3CCCCC3)cs2)c2[nH]cc(C#N)c12` [Compound 77], for which the concentration for a half-maximal effect (EC50) worked out at 828 nM.
`N#Cc1c[nH]c2c(NS(=O)(=O)c3cnc(N4CCOCC4)s3)cccc12` [Compound 205] came in with an EC50 of 632 nM.
On to `Cc1ccc(NS(=O)(=O)c2ncc(-c3ccncn3)s2)c2[nH]cc(C#N)c12` [Compound 45], for which the EC50 came out at 394 nM.
Take `Cc1ccc(NS(=O)(=O)c2c[nH]c(C(C)C)n2)c2[nH]cc(C#N)c12` [Compound 39]: the EC50 turned out to be 520 nM.
Turning to `Cc1ccc(NS(=O)(=O)c2ncc(-c3ccncc3)s2)c2[nH]cc(C#N)c12` [Compound 36], the response was half-maximal at 354 nM (EC50).
In turn, `COc1ncc(S(=O)(=O)Nc2ccc(C)c3c(C#N)c[nH]c23)s1` [Compound 84] registered a 50% effective concentration (EC50) of 175 nM.
Regarding `Cc1nc(Br)sc1S(=O)(=O)Nc1ccc(C)c2c(C#N)c[nH]c12` [Compound 99], the EC50 came to 518 nM.
In turn, `Cc1ccc(NS(=O)(=O)c2nccs2)c2[nH]cc(C#N)c12` [Compound 2] showed a 50% effective concentration (EC50) of 1030 nM.
